# “Also recorded” adds a separate entry of the source.
# Legend:
# [1] = tested on: patients with advanced solid tumors; experiment: Dose escalation: dose-limiting toxicity, MTD and RP2D; assay type: in vivo, human
# Procedure: Ganetespib was administered over a 1-hour infusion, once weekly for 3 weeks of a 4-week cycle. Intra-patient dose escalation was allowed to dose levels shown to be safe and tolerable. The starting dose (7 mg/m^2) was selected based on a conservative estimate using the highest non-severely toxic dose established in a once-weekly, 4-week repeat dose study in cynomolgus monkeys. […] Each cohort consisted of 3 patients, with expansion to 6 patients if 1 of the 3 initial patients experienced a DLT, which was defined as: Grade 4 thrombocytopenia (or Grade 3 with hemorrhage); Grade 4 neutropenia lasting > 7 days (or Grade 3 with fever); Grade 4 anemia; ≥ Grade 3 non-hematologic toxicity (except alopecia); and ≥ Grade 3 hypersensitivity despite premedication. Doses were escalated after all patients in the preceding dose cohort had completed Cycle 1. […] The RP2D was defined as the dose of ganetespib below which 2 of 3 or 2 of 6 patients experienced a DLT.
# advanced solid tumors = experiment: Tumor response (RECIST v1.0); assay type: in vivo, human; conditions: for Disease control rate (≥ 8 weeks): complete and partial responses, and stable disease ≥ 8 weeks; for Disease control rate (≥ 16 weeks): complete and partial responses, and stable disease ≥ 16 weeks; for Best response: Complete response / Best response: Non-evaluable / Best response: Partial response / Best response: Progressive disease / Best response: Stable disease: investigator-evaluated
# Procedure: Patients’ demographics and medical history were recorded at baseline. Physical examination and PS were assessed at baseline and on Day 1 of each cycle. Adverse events (AEs), vital signs, hematology and chemistry values, and creatinine clearance were assessed at baseline and weekly during treatment. Toxicity was graded using National Cancer Institute Common Terminology Criteria for Adverse Events (NCI CTCAE), version 3.0. An electrocardiogram (ECG) was performed at baseline, before and after treatment on Days 1 and 15 of Cycles 1 and 2, and on Day 15 of even-numbered cycles thereafter. CT scans were done at baseline and every 8 weeks thereafter. Tumor response was assessed using Response Evaluation Criteria in Solid Tumors (RECIST, v1.0), with confirmation of responses performed at least 4 weeks later.
# [2] = Plasma pharmacokinetics (HPLC-MS/MS, non-compartmental); assay type: in vivo, human
# Procedure: Blood samples were taken for ganetespib plasma concentration determination on Days 1 and 15 of Cycle 1 pre-dose, 0.5, 1, 1.5, 2, 4, 6, 8 and 24 h after infusion initiation. Samples were also drawn pre-dose and at 1 h, on Day 8 of Cycle 1 and Days 1, 8 and 15 of subsequent cycles. Plasma was separated and stored at a −70°C until analysis. Analyses were performed by a validated HPLC-MS/MS method under GLP conditions at Synta Pharmaceuticals Corp. Calibration curve coefficients of determination (r^2) ranged from 0.9897 to 0.9992. Back-calibrated calibration standards were in good agreement with QC samples with bias ≤ ± 3%, and calibration-curve r^2 variation was ≤ ± 6.5% across a concentration range of 0.100 through 100 ng/ml.
# Pharmacokinetic parameters were computed non-compartmentally using standard methods within a validated installation of WinNonlin (v4.1, Pharsight Corporation, St. Louis, MO). Parameters included the maximum concentration (Cmax), area under the plasma concentration versus time curve (AUC), time of maximum concentration (Tmax), and terminal elimination half-life (t1/2).
# HSP70 protein in plasma = HSP70 protein in plasma by ELISA; assay type: in vivo, human; conditions: for Peak circulating plasma HSP70 level: NSCLC patient, 150 mg/m^2
# Procedure: Pre-dose blood samples on Days 1, 8 and 15 of Cycle 1 and 2 were collected for assessment of HSP70 protein in plasma by ELISA. Assays were performed using high sensitivity HSP70 ELISA kits (Assay Design, Ann Arbor, Michigan), with a sensitivity limit as low as 90 pg/ml, according to manufacturers’ instructions. Results were detected using a microplate ELISA reader at 450 nm with a correction wavelength of 540 nm. Concentrations of HSP70 were normalized to the total protein in each plasma sample.
# [3] = tested on: patients with advanced solid tumors; parameters: method as in unpublished observation; conditions: over 400 patients treated in other studies; ref unpublished observation; cited from earlier work
# [4] = one NSCLC patient, 150 mg/m^2, BRAF G469A mutation
# [5] = 1-hour IV infusion, across doses
smiles,measurement,setting,value
"CC(C)c1cc(-c2n[nH]c(=O)n2-c2ccc3c(ccn3C)c2)c(O)cc1O [Ganetespib, 5-[2,4-dihydroxy-5-(1 methyl-ethyl)phenyl]-2,4 dihydro-4-(1-methyl-1H indol-5 yl)-3H-1,2,4 triazole-3-one]",DLT: Grade 3 elevated serum amylase,[1]; 150 mg/m^2 dose level,one Grade 3 amylase elevation; also recorded: one patient
same,DLT: Grade 3 and 4 asthenia,[1]; 259 mg/m^2 dose level,one Grade 3 and one Grade 4 asthenia; also recorded: two patients
same,DLT: Grade 3 diarrhea,"[1]; 259 mg/m^2 dose level, expanded to 6 patients",one Grade 3 diarrhea; also recorded: one additional patient
same,Patients experiencing DLT,[1]; 7–114 mg/m^2 cohort,None of the patients
same,Maximum tolerated dose (MTD),[1]; 1 hour IV infusion once weekly for 3 weeks of a 4-week cycle,216 mg/m^2
same,Recommended phase II dose (RP2D),"[1]; human, in vivo, iv, 4 weeks",200 mg/m^2
same,Grade 3 fatigue (would have been dose-limiting in dose-escalation phase),[1]; in vivo,One patient
same,Disease control rate (≥ 8 weeks),"advanced solid tumors; 259 mg/m^2, n = 6",2 (33.3) n (%)
same,Disease control rate (≥ 16 weeks),"advanced solid tumors; 259 mg/m^2, n = 6",2 (33.3) n (%)
same,Best response: Complete response,"advanced solid tumors; 259 mg/m^2, n = 6",0 n (%)
same,Best response: Non-evaluable,"advanced solid tumors; 259 mg/m^2, n = 6",1 (16.7) n (%)
same,Best response: Partial response,"advanced solid tumors; 259 mg/m^2, n = 6",0 n (%)
same,Best response: Progressive disease,"advanced solid tumors; 259 mg/m^2, n = 6",3 (50) n (%)
same,Best response: Stable disease,"advanced solid tumors; 259 mg/m^2, n = 6",2 (33.3) n (%)
same,Disease control rate (≥ 8 weeks),"advanced solid tumors; 7-114 mg/m^2, n = 25",11 (44) n (%)
same,Disease control rate (≥ 16 weeks),"advanced solid tumors; 7-114 mg/m^2, n = 25",5 (20) n (%)
same,Best response: Complete response,"advanced solid tumors; 7-114 mg/m^2, n = 25",0 n (%)
same,Best response: Non-evaluable,"advanced solid tumors; 7-114 mg/m^2, n = 25",4 (16) n (%)
same,Best response: Partial response,"advanced solid tumors; 7-114 mg/m^2, n = 25",1 (4) n (%)
same,Best response: Progressive disease,"advanced solid tumors; 7-114 mg/m^2, n = 25",10 (40) n (%)
same,Best response: Stable disease,"advanced solid tumors; 7-114 mg/m^2, n = 25",10 (40) n (%)
same,Patients with SD for at least 8 weeks,advanced solid tumors; 10 patients with NSCLC,60%
same,Duration of SD (range),advanced solid tumors; 23 patients with SD,46 to 563 days
same,Disease control rate (≥ 8 weeks),"advanced solid tumors; 150-216 mg/m^2, n = 22",11 (50) n (%)
same,Disease control rate (≥ 16 weeks),"advanced solid tumors; 150-216 mg/m^2, n = 22",6 (27.3) n (%)
same,Best response: Complete response,"advanced solid tumors; 150-216 mg/m^2, n = 22",0 n (%)
same,Best response: Non-evaluable,"advanced solid tumors; 150-216 mg/m^2, n = 22",6 (27.3) n (%)
same,Best response: Partial response,"advanced solid tumors; 150-216 mg/m^2, n = 22",0 n (%)
same,Best response: Progressive disease,"advanced solid tumors; 150-216 mg/m^2, n = 22",5 (22.7) n (%)
same,Best response: Stable disease,"advanced solid tumors; 150-216 mg/m^2, n = 22",11 (50) n (%)
same,Disease control rate (≥ 8 weeks),"advanced solid tumors; Overall response, n = 53",24 (45.3) n (%)
same,Disease control rate (≥ 16 weeks),"advanced solid tumors; Overall response, n = 53",13 (24.5) n (%)
same,Best response: Complete response,"advanced solid tumors; Overall response, n = 53",0 n (%)
same,Best response: Non-evaluable,"advanced solid tumors; Overall response, n = 53",11 (20.8) n (%)
same,Best response: Partial response,"advanced solid tumors; Overall response, n = 53",1 (1.9) n (%)
same,Best response: Progressive disease,"advanced solid tumors; Overall response, n = 53",18 (34) n (%)
same,Best response: Stable disease,"advanced solid tumors; Overall response, n = 53",23 (43.4) n (%)
same,Disease control rate (PR and SD ≥ 16 weeks),advanced solid tumors; all patients,24.5%
same,Patients with SD,advanced solid tumors; all patients,43.4%
same,Doses generally associated with disease stabilization,advanced solid tumors; heavily pre-treated patients with metastatic cancers,higher than 80 mg/m^2
same,Patients with PR,advanced solid tumors; metastatic colorectal cancer,One patient
same,Maximum reduction in target lesions,advanced solid tumors; [4],26.5%
same,Time on study,advanced solid tumors; [4],13 months
same,Maximum reduction in target lesions,"advanced solid tumors; one patient with metastatic GIST, 216 mg/m^2, PDGFRA^D842V exon 18 mutation",18%
same,Duration of disease stabilization,"advanced solid tumors; one patient with neuroendocrine tumor, 259 mg/m^2",over 20 months
same,Tmax occurrence at the time of the 0.5 h sample,[2]; 1-hour IV infusion,39 % of drug administrations
same,Mean steady state volume of distribution (Vss),[2]; [5],107 ± 98 L/m^2
same,Plasma drug clearance,[2]; [5],28.55 ± 9.33 L/h/m^2
same,Tmax,"[2]; human, plasma, 1-hour IV infusion",47.4 min
same,Vd,"[2]; human, plasma, 1-hour IV infusion, across doses, read-out: Mean steady state volume of distribution (Vss)",196 ± 172 L
same,clearance,"[2]; human, plasma, 1-hour IV infusion, across doses, read-out: Plasma drug clearance (converted)",877 mL/min
same,half-life,"[2]; human, plasma, 1-hour IV infusion, across doses, read-out: Terminal t1/2 (mean ± SD) (converted)",~452 min
same,Drug accumulation,"[2]; once-weekly doses, Day 1 vs Day 15",no apparent drug accumulation
same,Coefficient of variation for clearance,[2]; overall variability in exposure,33.8%
same,Plasma concentration as % of Cmax,[2]; within 8 to 10 h,~1 % of Cmax
same,Plasma concentration as % of Cmax,[2]; within 1 h of infusion termination,approximately 10 % of Cmax
same,Peak circulating plasma HSP70 level,HSP70 protein in plasma; Cycle 1,750 ng/g
same,Peak circulating plasma HSP70 level,HSP70 protein in plasma; Cycle 2,730 ng/g
same,Hsp70 plasma protein levels versus baseline,"HSP70 protein in plasma; Days 8 and 15, pre-dose, majority of patients",significantly elevated
same,Dose levels at which Hsp70 induction saturates,HSP70 protein in plasma; mean maximum increase of HSP70 in Cycle 1,above 180 mg/m^2
same,Persistence of elevated HSP70 protein plasma levels following drug exposure,HSP70 protein in plasma; post treatment,over a week; also recorded: at least a week
same,Incidence of treatment related visual changes,[3],< 3%

# Reference: article PMC3626541, “A first in human, safety, pharmacokinetics, and clinical activity phase I study of once weekly administration of the Hsp90 inhibitor ganetespib (STA-9090) in patients with solid malignancies” (BMC Cancer, 2013)
